Like-named read-outs stand apart in the source and are kept apart here.
Assays:
Tlp11-LBD = test: Microscale thermophoresis (MST) of Tlp11-LBD; format: binding, C. jejuni ATCC 33560
Description: (§1) The His-tag dye (MO-L018 RED-tris-NTA, NanoTemper, Germany) was adjusted to a final concentration of 25 nM and used to label the purified protein with a His-tag. The compound was diluted to a series of concentrations in phosphate-buffered saline ([Duan et al., 2023]) with 0.05% Tween 20 (PBS-T) buffer and mixed in a ratio of 1:1 with protein. The mixtures were loaded into capillaries (Monolith™ Series capillaries, NanoTemper) by means of capillary action. Thermophoresis was measured using a Monolith™ NT.115 (NanoTemper) instrument, with 40% excitation and 40% MST power configuration. The time-traces of changes in fluorescence, which reflected the thermophoretic movement of labeled protein affected by different concentrations of compound were recorded, and the dose–response curves were fitted with the ‘temperature jump and thermophoresis’ mode. Data analysis was performed using MO. Affinity Analysis version 2.3 (NanoTemper) and Prism version 8.0.2 (GraphPad Software, United States).
MST quantifies interaction affinities by detecting the direct movement of fluorescent molecules along temperature gradients in capillaries. Ligand binding changes the thermophoretic movement of proteins, which can be used to derive Kds, by sequentially scanning capillaries with different ligand concentrations. MST has been applied to the study of weak binding systems and validated to provide reliable results ([Linke et al., 2016]; [Gao et al., 2021]). […] We also tested the binding abilities of methyl pyruvate analogues to Tlp11-LBD using MST (Supplementary Table S3).

[1] = system: C. jejuni 11168ΩTlp11/ΔCheY; format: cell-based, Campylobacter jejuni; conditions: 11168ΩTlp11/ΔCheY; microfluidic device
[2] = biological target: Tlp11-LBD homologue (WP_257425542.1, residues 31-331); test: MST of Tlp11-LBD homologue; format: binding, Campylobacter upsaliensis; conditions: C. upsaliensis LBD
Description: as §1
(§2) To evaluate whether these potential Tlp11-LBD homologues could bind to methyl pyruvate, we conducted a structural analysis of the LBDs of six chemoreceptors from C. coli, H. equorum, H. himalayensis, H. mesocricetorum, H. ganmani, and C. upsaliensis using Alphafold 2. […]

[3] = system: C. jejuni NCTC 11168ΩTlp11 cells; format: cell-based, Campylobacter jejuni; conditions: 11168ΩTlp11 cells; microfluidic device, 30 min
[4] = biological target: Tlp11-LBD homologue (WP_201459806.1, residues 32-332); test: MST of Tlp11-LBD homologue; format: binding, Campylobacter coli; conditions: C. coli LBD
Description: as §1, §2

[5] = system: Tlp11[1-342]-Tar[200-553] (Tlp342Tar200); test: Microfluidic chemotaxis of E. coli expressing hybrid chemoreceptor Tlp342Tar200; format: cell-based, E. coli VS188; conditions: microfluidic device, 50 min
Description: The E. coli cells expressing hybrid chemoreceptor and GFP were grown in tryptone broth, up to an OD600 of 0.55, at 34°C, with shaking at 250 rpm. The cells were harvested by means of centrifugation at 5,000 rpm, washed twice with Tethering Buffer (10 mM KH2PO4, 10 mM K2HPO4, and 0.1 mM EDTA, pH 7.0), and resuspended in Tethering Buffer such that an OD600 of 5.5 was attained. The chemotactic responses of E. coli cells to the compounds were measured using a microfluidic device ([Si et al., 2012]). The collected E. coli cells were added to the sink pores of the device and allowed to freely diffuse into the observation channel for 40 min. Subsequently, the compound solution was added to the source pores, to establish a concentration gradient gradually in the observation channel of the device. Fluorescence intensity in the observation channel was detected using an LSM 800 laser scanning confocal microscope (Zeiss, Germany). Data were analyzed using ImageJ software.
To determine whether methyl pyruvate stimulates transmembrane signaling through Tlp11-LBD, we fused C. jejuni ATCC 33560 Tlp11-LBD with the cytoplasmic region of the E. coli chemoreceptor Tar to construct Tlp11-Tar hybrid chemoreceptors (Figure 3A). Five hybrid receptors with different fusion positions in the second transmembrane helix (TM2) were obtained: Tlp11[1-342]-Tar[200-553] (Tlp342Tar200), Tlp11[1-343]-Tar[200-553] (Tlp343Tar200), Tlp11[1-346]-Tar[204-553] (Tlp346Tar204), Tlp11[1-347]-Tar[204-553] (Tlp347Tar204), and Tlp11[1-348]-Tar[204-553] (Tlp348Tar204) (Supplementary Figure S5A). To verify the activities of these hybrid chemoreceptors, we expressed each protein as a chimera in green fluorescent protein (GFP)-labeled E. coli VS188 without any other chemoreceptors, such that each hybrid receptor served as the only chemoreceptor in the E. coli. […] These chemotactic responses triggered by glucose through the phosphotransferase system are independent of the chemoreceptor LBD ([Neumann et al., 2012]). […] Thus, we used this hybrid receptor for subsequent chemotaxis measurements.

[6] = biological target: Tlp11-LBD homologue (WP_066386874.1, residues 33-320); test: MST of Tlp11-LBD homologue; format: binding, Helicobacter himalayensis; conditions: H. himalayensis LBD
Description: as §1, §2

COC(=O)C(C)=O [methyl pyruvate, Methyl pyruvate]
Kd (Tlp11-LBD; 250 nM protein, methyl pyruvate at pH 7.0, read-out: Kd of Tlp11-LBD binding): 0.688 ± 0.14 mM
Kd (Tlp11-LBD; Tlp11-LBD saturated with 5 mM quinoline, read-out: Kd of Tlp11-LBD interacting with methyl pyruvate): 3.9 ± 1.1 mM
Kd (Tlp11-LBD; Tlp11-LBD saturated with 5 mM toluene, read-out: Kd of Tlp11-LBD interacting with methyl pyruvate): 18 ± 3 mM
chemotactic response [1]: no chemotaxis
Kd [2]: 1.9 ± 0.5 mM
chemotactic response [3]: robust attractant response
Kd [4]: 1.4 ± 0.5 mM
chemotactic response of E. coli expressing Tlp342Tar200 as the sole receptor [5]: strong attractant response
Kd [6]: 1.1 ± 0.3 mM

— publication PMC11111895, “Identification of a dCache-type chemoreceptor in Campylobacter jejuni that specifically mediates chemotaxis towards methyl pyruvate” (Frontiers in Microbiology, 2024)
